# Reference: patent US20040009194A1, “Methods, and compositions for a therapeutic antigen presenting cell vaccine for treatment of immunodeficiency virus” (priority 2002, published 2004)
# Columns and labels:
# [1] = system: autologous PBL; assay: Proliferation of patient T cells stimulated with inactivated-virus-pulsed autologous DC ([methyl-3H]thymidine incorporation); format: cell-based, human; details: indinavir 10 nM (nonantiviral concentration); P<0.001
# From the text: To mimic the antigen capture by DC in peripheral tissues, immature DC (i.e., competent in antigen capture) generated by culturing patient blood monocytes with GM-CSF and IL-4 for 5 days were pulsed with autologous viral isolates inactivated by 2,2′ dithiodipyridine or aldrithiol-2 (AT-2), which preserves the intact native conformation and fusogenic activity of HIV Env protein. As will be appreciated by those skilled in the art, there are a number of mechanisms suitable to inactivate a virus, and any of these methods can be used so long as the method preserves the intact native conformation and fusogenic activity of HIV Env protein. To model the presentation of antigens in lymphoid tissue, virus-pulsed DC were matured in the presence of TNF-α and IFN-α for an additional 3 days to maximize their T-cell-stimulatory activity. Matured virus-pulsed DC was then used to stimulate autologous PBL at a stimulator/responder ratio of 1:3 in the absence or presence of PI at a nonantiviral concentration (10 nM indinavir). By day 7 of coculture, PBL were restimulated with the same virus-pulsed DC for an additional 7 days. At day 14, proliferation was measured by incubating PBL with virus-pulsed DC at stimulator/responder ratios of 1:3 to 1:100. […] HIV-1 gag-specific CTL activity following stimulation with virus-pulsed autologous DC.
# [2] = system: autologous B-LCL infected by recombinant vaccinia virus containing a gag gene of HIV-1; format: cell-based, human
smiles,measurement,setting,value
CC(C)(C)NC(=O)[C@@H]1CN(Cc2cccnc2)CCN1C[C@@H](O)C[C@@H](Cc1ccccc1)C(=O)N[C@H]1c2ccccc2C[C@H]1O [indinavir],effect of PI on DC-mediated T-cell proliferation,[1],significantly enhanced
same,effect of indinavir on gag-specific CTL activity,[2],significantly enhanced
